Data reported in patent publication US3973021A, “2-[2-(5-Nitro-2-furyl)vinyl]-4-(phydroxyanilino)quinazoline as a bactericide” (Diamond Shamrock Corporation, priority 1975, dated 1976).
Positions of bridges follow the written chain, without caps; N, C: chain ends. Non-standard residues stand in square brackets, D forms with d. Residues, ends and D or L forms follow the SMILES beside them. *: point of attachment. Ileψ(thiazoline)Cys = CC[C@H](C)[C@H](N)C1=N[C@H](C(=O)*)CS1; dOrn = NCCC[C@@H](N)C(=O)O

Experiments:
[1] = test system: S. faecalis, E. rhusiopathiae, B. bronchiseptica, S. agalactiae, Streptococcus group E and Vibrio coli; experiment: Bactericide test, comparison with chlortetracycline; format: cell-based; conditions: Table A
Source text: Test formulations were examined for bactericidal and/or bacteriostatic activity against the test organisms shown in Tables A and B. These organisms were chosen as being representative of commercially important pathogens affecting animal agriculture. The antibiotic chlortetracycline was chosen as a positive control, since it has a broad spectrum of activity against a large number of organisms, and its activity can be used for comparative purposes.
Basic test formulations of the product of Examples I, II, III, and of chlortetracycline were prepared by dissolving 16 mg (0.016 g) in 2.0 ml of stock emulsifier solution (0.25% Triton X-155 in acetone by volume) and making each solution up to 50 ml with deionized water. The concentration of the test compound in the basic formulation was 320 ppm. Lower concentrations of the test compound were obtained by diluting the basic formulation with a 4% solution of the stock emulsifier in deionized water so that each dilution in the series differed only in test compound content.
Nutrient-tryptic soy agar (NTA) consisting of 2.0% Difco Bactoagar 0.8% nutrient broth (Difco), and 0.5% tryptic soy broth (Difco) was prepared and sterilized by autoclaving. A 2 ml aliquot of each test formulation was added to 8 ml of molten NTA. This mixture was then plated in a sterile polystyrene petri dish (100 × 15 mm). After the agar was set, suspensions of each of the test organisms were simultaneously streaked onto the surface of the agar. The inoculated plates were incubated for 48 hr. at 28°C. The inhibition of growth of each organism was rated by visual comparison with the organism developing on non-treated agar. Growth inhibition reported as percent control was rated in three categories as follows: 0% control, growth equivalent to that on non-treated agar; 50% control, sparse development and separated colonies; 100% control, no visible growth or development of colonies.

[2] = Example XII: 4 week chick feeding test, first set (Table VI); format: in vivo, broiler cross chicks; conditions: Table VI
Source text: (§1) This example compares growth promotion activity of the product of Example I with other growth promotants at a concentration of 25 g/T in the Basal Ration described in Example VII. The other growth promotants include the product described in Example I of U.S. Pat. No. 3,542,784 -- Burch and quinoxaline-1,4-dioxide. Day old broiler cross chicks were weight equalized into groups of 8 chicks each, and four replicates of 8 chicks each were fed the experimental rations over a 4 week period.
The growth promotion tests described in Example X were repeated with the additional testing the products of Examples II and III.

[3] = Example VII: 4 week chick feeding test, weight gain and feed efficiency; format: in vivo, broiler cross chicks; conditions: analysis of variance; over Basal Ration + Bacitracin
Source text: One hundred twenty day-old broiler cross chicks were weight equalized into 15 groups of 8 chicks each and placed in battery brooders. The 40 chick treatment groups (5 replicates) were fed the one of the three rations described below for a four week period. weekly measurements of body weights and feed consumption were made by replicate, and these measurements used to calculate weight gain and feed efficiency.
The commercial type broiler starter basal ration which was used in this study was designated as the Basal Ration, and had the following composition:
The preceding basal ration was mixed with bacitracin at a level of 4 g/T as the only growth stimulant to simulate commercial practice. This mixture was designated as the Basal Ration + Bacitracin (4 g/T) and constituted the negative control in this study.
A second ration was prepared by fortifying the Basal Ration + bacitracin described above with the Product from Example I above at a level of 200 g/T, and was designated as Basal Ration + Bacitracin + Product of Example I (200 g/T). A third ration was prepared by fortifying the Basal Ration + bacitracin described above with chlortetracycline (CTC) at a level of 200 g/T, and was designated as Basal Ration + Bacitracin + Chlortetracycline (200 g/T).
The term "growth promotion" is used herein to describe the beneficial effect of a compound in eliciting a more rapid of weight gain when compared to the weight gain of control animals not fed the compound. "Feed efficiency" is a term regularly used in animal husbandry and is a measure of the pounds of feed required to produce a pound of gain in the weight of the animal. A lower mathmatical value for feed efficiency reflects improved performance.

[4] = Example IX: chick feeding test, titration dosage; format: in vivo, broiler cross chicks
Source text: (§2) Day old broiler cross chicks were weight equalized into groups of 8 chicks each and were placed in battery brooders. The 32 chick treatment groups (4 replicates) were fed one of the five rations described below for a four week period. Weekly measurements of body weights and feed consumption were made by replicate, and these measurements used to calculate weight gain and feed efficiency.
The concentrations used in this test were 6.25, 12.5, 25, 50, 100, 200 and 400 g of the Product of Example I per ton of the Basal Ration described in Example VII above. The same number and size chick treatment groups were used in this test as in Example VIII above.

[5] = Example VIII: 4 week chick feeding test at low levels; format: in vivo, broiler cross chicks
Source text: as §2
The basal ration was the basal ration used in Example VII above. The remaining five rations wer obtained by mixing the indicated quantities of bacitracin (4 g/T), chlortetracycline (10 g/T), product of Example I (10 g/T), and product of Example II of U.S. Pat. No. 3,542,784 -- Burch (10 g/T) as growth promotants with the basal ration.

[6] = Example X: 4 week chick feeding test, 25 g/T; format: in vivo, broiler cross chicks
Source text: as §1

[7] = Example XII: 4 week chick feeding test, repeat with five replicates (Table VII); format: in vivo, broiler cross chicks; conditions: Table VII
[8] = Example XI: 4 week chick feeding test, five replicates; format: in vivo, broiler cross chicks; conditions: for feed efficiency (in words) / growth rate (in words): Table V
Source text: as §1
The growth promotion tests described in Example X were repeated with the exception that fives replicates of 8 chicks each were fed the formulations described in Table V for four weeks.

[9] = Example XIII: 6 week swine feeding test, growth rate and feed efficiency; format: in vivo, weanling pigs; conditions: Table VIII
Source text: Thirty-six weanling pigs weighing approximately thirty pounds each in good physical condition and originating from a common source were used in these tests. The pigs were allocated into sex and weight equalized pens of six pigs each. A one week period was allowed for acclimatization before testing. Three replicates of six pigs were fed the basal ration described below, and three replicates were fed the same basal ration supplemented with 25 g/T of the product of Example I.
The basal ration was a 17% commercial corn-soya pelletized formulation which was free of antibiotic and drug components. Composition of the basal ration formulation was: […]
The rations were offered ad libitum from six bushel self-feeders with a continuous supply of fresh water. The same ration formulations were used throughout the six week feeding period. Individual pig weighing were made after 0,2,4 and 6 (termination) week periods. Feed consumption records were kept on a pen basis, with feed efficiency conversion being compiled at the end of the 2nd, 4th and 6th (termination) week of feeding. Complete morbidity and mortality records were kept.

Structure (SMILES): O=[N+]([O-])c1ccc(C=Cc2nc(Nc3cccc(O)c3)c3ccccc3n2)o1 [Example II, 2-[2-(5-nitro-2-furyl)vinyl]-4-(m-hydroxyanilino)quinazoline]
- effectiveness relative to chlortetracycline (in words) [1]: considerably more effective
- growth rate / feed efficiency response (in words) [2]: moderate improvements

Structure (SMILES): O=[N+]([O-])c1ccc(C=Cc2nc(Nc3ccc(O)cc3)c3ccccc3n2)o1 [Example I, 2-[2-(5-nitro-2-furyl)vinyl]-4-(p-hydroxyanilino)quinazoline]
- statistical significance of improved feed efficiencies [3]: significant at the 99.9% level of probability
- statistical significance of improved weight gains [3]: significant at the 99.5% level of probability
- growth promotion (in words) ([4]; 12.5 g/T): noticeable growth promotion
- weight gain and feed efficiency (in words) ([4]; 25 and 50 g/T): improvements in weight gain and feed efficiency
- weight gain (in words) ([4]; 100 g/T): absence of weight gain improvement
- improvement (in words) ([4]; 200 g/T): substantial improvements
- optimum concentration ([4]; economics and efficacy): 25 g/T
- growth promotion (in words) ([5]; Table II, compared with other growth promotants): greater growth promotion than any of the other growth promotants
- Average 4 Week Performance: Feed Efficiency ([6]; 25g/T): 1.503
- Improved Response Over Basal Ration: Feed Efficiency ([6]; 25g/T): +3.2%
- Improved Response Over Basal Ration: Gain ([6]; 25g/T): +6.2%
- growth rate and feed efficiency response (in words) ([6]; 25 g/T, Table IV): strongest response in growth rate and feed efficiency
- effectiveness relative to chlortetracycline (in words) [1]: considerably more effective
- growth rate / feed efficiency response (in words) [7]: moderate improvement in production parameters
- combined effect with bacitracin (in words) ([8]; 25g/T + 25g/T bacitracin): synergistic effects
- Improved Response Over Basal Ration: Feed Efficiency ([8]; 25g/T + Bacitracin (25g/T)): +7.5%
- Improved Response Over Basal Ration: Gain ([8]; 25g/T + Bacitracin (25g/T)): +4.6%
- feed efficiency (in words) [8]: substantial improvement in feed efficiency
- growth rate (in words) [8]: moderate improvement in growth rate
- feed efficiency (in words) [9]: enhanced feed efficiency
- growth (in words) [9]: very substantial growth improvement
- growth rate / feed efficiency response (in words) [2]: moderate improvement in production parameters

Structure (SMILES): CC[C@H](C)[C@H](N)C1=N[C@H](C(=O)N[C@@H](CC(C)C)C(=O)N[C@H](CCC(=O)O)C(=O)N[C@H](C(=O)N[C@H]2CCCCNC(=O)[C@H](CC(N)=O)NC(=O)[C@@H](CC(=O)O)NC(=O)[C@H](Cc3cnc[nH]3)NC(=O)[C@@H](Cc3ccccc3)NC(=O)[C@H]([C@@H](C)CC)NC(=O)[C@@H](CCCN)NC2=O)[C@@H](C)CC)CS1 [Bacitracin] ({Ileψ(thiazoline)Cys}-L[dE]IK[dOrn]I[dF]H[dD]N; lactam 4-C)
- Improved Response Over Basal Ration: Feed Efficiency ([5]; 4 g/T in Basal Ration): +1.2%
- Improved Response Over Basal Ration: Gain ([5]; 4 g/T in Basal Ration): -2.3%
- Improved Response Over Basal Ration: Feed Efficiency ([8]; 25g/T): +3.1%
- Improved Response Over Basal Ration: Gain ([8]; 25g/T): +1.2%
- feed efficiency (in words) [8]: moderate improvements in feed efficiencies
- growth rate (in words) [8]: slight improvements in growth rates

Structure (SMILES): O=[N+]([O-])c1ccc(C=Cc2nc(Nc3ccccc3)c3ccccc3n2)o1 [Example IV, 2-[2-(5-nitro-2-furyl)vinyl]-4-anilinoquinazoline]
- effectiveness relative to chlortetracycline (in words) [1]: considerably more effective
